Measurements as given in patent publication US20240366546A1, “ANTI-HELICOBACTER PYLORI DERIVATIVE CONTAINING DIHYDROSTILBENE PARENT NUCLEUS AND PREPARATION METHOD AND APPLICATION THEREOF” (NANJING UNIVERSITY OF CHINESE MEDICINE, priority 2024, published 2024).
In brackets after ≈: the same amount, converted by molar mass.

Legend:
Assay type in all cases: cell-based
[1] = system: drug-resistant and sensitive Helicobacter pylori; assay: Determination of MIC, broth microdilution, summary over strains; settings: two kinds of drug-resistant and sensitive Helicobacter pylori; range over strains
Description: (§1) Anti-Helicobacter pylori activity of each compound is evaluated by a broth microdilution method in an activity experiment, and metronidazole, levofloxacin, clarithromycin and vancomycin used in clinic are selected as positive control drugs.
(§2) Helicobacter pylori strains HpG27, Hp159, Hp129 and Hp26695 provided by Professor Hongkai Bi of Nanjing Medical University. Culture mediums and main reagents: Colombian culture mediums, selective antibiotics (metronidazole, levofloxacin and clarithromycin), serum, and the like.
(§3) The strains were taken out of a refrigerator at −80° C. and placed at room temperature, 200 L of standard strains were accurately sucked, transferred to a solid culture medium, and spread with an L-shaped glass rod, a culture dish loaded with the strains was put into a culture bag, then an AnaeroPack was put into the culture bag, and the culture bag was quickly sealed and then put into a constant temperature incubator at 37° C. to culture for 72 hours. After the end of culture, each strain was identified first, then a lawn on the solid culture medium was scraped off, and the lawn was transferred into 50 mL of liquid culture medium to serve as an original bacterial solution.
(§4) • (1) Sample solutions of the compounds 1 to 9 obtained by separation and purification above were prepared according to a concentration of 1 mg/mL. • (2) In preparation of an MIC plate, a first well was added with 176 μL of culture medium and then added with 3.2 μL of antibacterial drug, and dilution was carried out by multiple proportions to a 7th well; and an 8th well was not added with the drug, but was reserved with 90 μL of culture medium to serve as a control with bacteria but no drug. • (3) In preparation of a bacterial solution, Helicobacter pylori growing at a logarithmic phase on a solid plate was made into a bacterial suspension with a BHI culture medium, an OD600 value of concentration of the bacterial suspension was adjusted to be 0.3 (1×10^8 CFU/mL), and the bacterial suspension was diluted by 10 times to reach 1×10^7 CFU/mL for later use. • (4) In inoculation, 10 μL of bacterial solution was added into the 1st to 8th wells (a concentration of the bacterial solution in each well was about 1.0×10^6 CFU/mL). Results were judged after 72 hours of culture. […] The test was only meaningful when the bacteria in the 8th well of the positive control well (without antibiotics) grew obviously. When there was a single drift in a microdilution method, the highest drug concentration capable of inhibiting the growth of bacteria should be recorded. If there were many drifts, the results should not be reported, and the test should be repeated.

[2] = system: Helicobacter pylori strain Hp129; assay: Determination of MIC, broth microdilution, strain Hp129; settings: 72 hours of culture, (R) beside control drug values, read-out: Minimum inhibitory concentration against helicobacter pylori Hp129
Description: as §1, §2, §3, §4

[3] = system: Helicobacter pylori strain Hp26695; assay: Determination of MIC, broth microdilution, strain Hp26695; settings: 72 hours of culture, read-out: Minimum inhibitory concentration against helicobacter pylori Hp26695
Description: as §1, §2, §3, §4

[4] = system: Helicobacter pylori strain HpG27; assay: Determination of MIC, broth microdilution, strain HpG27; settings: 72 hours of culture, read-out: Minimum inhibitory concentration against helicobacter pylori HpG27
Description: as §1, §2, §3, §4

[5] = system: Helicobacter pylori strain Hp159; assay: Determination of MIC, broth microdilution, strain Hp159; settings: 72 hours of culture, (R) beside control drug values, read-out: Minimum inhibitory concentration against helicobacter pylori Hp159
Description: as §1, §2, §3, §4

SMILES	MIC [1] [µg/mL]	MIC [2] [µg/mL]	MIC [3] [µg/mL]	MIC [4] [µg/mL]	MIC [5] [µg/mL]
CC(C)=CCc1c(O)cc(O)c(CC=C(C)C)c1CCc1ccc(O)cc1 [Compound 6, uralensisol L]	4 to 8 (≈ 10.9 to 21.8 µM)	8 (≈ 21.8 µM)	8 (≈ 21.8 µM)	4 (≈ 10.9 µM)	8 (≈ 21.8 µM)
CC(C)=CCc1c(CCc2ccc(O)cc2)cc(O)cc1OC(=O)C(C)C [Compound 1]	4 to 8 (≈ 10.9 to 21.7 µM)	8 (≈ 21.7 µM)	8 (≈ 21.7 µM)	8 (≈ 21.7 µM)	8 (≈ 21.7 µM)
O=Cc1c(O)cc(O)cc1CCc1ccc(O)cc1 [Compound 8, uralensisol N]		> 16	> 16	> 16	> 16
COc1cc(O)c(CC=C(C)C)c(CCc2ccc(O)cc2)c1 [Compound 3, uralensisol I]	4 to 8 (≈ 12.8 to 25.6 µM)	8 (≈ 25.6 µM)	4 (≈ 12.8 µM)	4 (≈ 12.8 µM)	8 (≈ 25.6 µM)
CCC(C)C(=O)Oc1cc(O)cc(CCc2ccc(O)cc2)c1CC=C(C)C (centres unmarked) [Compound 2]		> 16	> 16	> 16	> 16
COc1c(O)cc(CCc2cc(O)cc(OC(C)=O)c2CC=C(C)C)cc1CC=C(C)C [Compound 5, uralensisol K]		> 16	> 16	> 16	> 16
CC(=O)Oc1cc(O)c(CC=C(C)C)c(CCc2ccc(O)cc2)c1CC=C(C)C [Compound 7, uralensisol M]	4 to 8 (≈ 9.79 to 19.6 µM)	8 (≈ 19.6 µM)	8 (≈ 19.6 µM)	8 (≈ 19.6 µM)	8 (≈ 19.6 µM)
CC(=O)Oc1cc(O)cc(CCc2ccc(O)c(CC=C(C)C)c2)c1CC=C(C)C [Compound 4, uralensisol J]		> 16	> 16	> 16	> 16
C[C@H]1COc2c(N3CCN(C)CC3)c(F)cc3c(=O)c(C(=O)O)cn1c23 [LVX, levofloxacin, reference compound]		8 (≈ 22.1 µM)	0.25 (≈ 0.692 µM)	0.25 (≈ 0.692 µM)	8 (≈ 22.1 µM)
Cc1ncc([N+](=O)[O-])n1CCO [MTZ, metronidazole, reference compound]		32 (≈ 187 µM)	1 (≈ 5.84 µM)	2 (≈ 11.7 µM)	16 (≈ 93.5 µM)
CC[C@H]1OC(=O)[C@H](C)[C@@H](O[C@H]2C[C@@](C)(OC)[C@@H](O)[C@H](C)O2)[C@H](C)[C@@H](O[C@@H]2O[C@H](C)C[C@H](N(C)C)[C@H]2O)[C@](C)(OC)C[C@@H](C)C(=O)[C@H](C)[C@@H](O)[C@]1(C)O [CLR, clarithromycin, reference compound]		1 (≈ 1.34 µM)	0.008 (≈ 0.0107 µM)	0.008 (≈ 0.0107 µM)	2 (≈ 2.67 µM)
CC(C)=CCc1cc(CCc2cc(O)cc(O)c2CC=C(C)C)ccc1O [Compound 9, uralensisol 0]	4 to 8 (≈ 10.9 to 21.8 µM)	8 (≈ 21.8 µM)	8 (≈ 21.8 µM)	8 (≈ 21.8 µM)	8 (≈ 21.8 µM)
